Assay results: ChEMBL document CHEMBL1201862, “PubChem BioAssay data set” (2004)
Active and inactive are the calls of the source.

How the values were obtained:
[1] = target: T1, Protein RecA (Mycobacterium tuberculosis, UniProt P9WHJ3); assay: Fluorescence Cell-Free Homogeneous Dose Retest to Identify Inhibitors of RecA-Intein Splicing Activity. [Related pubchem assays (depositor defined):AID2097, AID2223, AID489010, AID492950]; type: functional
T1 sequence (P9WHJ3 whole entry): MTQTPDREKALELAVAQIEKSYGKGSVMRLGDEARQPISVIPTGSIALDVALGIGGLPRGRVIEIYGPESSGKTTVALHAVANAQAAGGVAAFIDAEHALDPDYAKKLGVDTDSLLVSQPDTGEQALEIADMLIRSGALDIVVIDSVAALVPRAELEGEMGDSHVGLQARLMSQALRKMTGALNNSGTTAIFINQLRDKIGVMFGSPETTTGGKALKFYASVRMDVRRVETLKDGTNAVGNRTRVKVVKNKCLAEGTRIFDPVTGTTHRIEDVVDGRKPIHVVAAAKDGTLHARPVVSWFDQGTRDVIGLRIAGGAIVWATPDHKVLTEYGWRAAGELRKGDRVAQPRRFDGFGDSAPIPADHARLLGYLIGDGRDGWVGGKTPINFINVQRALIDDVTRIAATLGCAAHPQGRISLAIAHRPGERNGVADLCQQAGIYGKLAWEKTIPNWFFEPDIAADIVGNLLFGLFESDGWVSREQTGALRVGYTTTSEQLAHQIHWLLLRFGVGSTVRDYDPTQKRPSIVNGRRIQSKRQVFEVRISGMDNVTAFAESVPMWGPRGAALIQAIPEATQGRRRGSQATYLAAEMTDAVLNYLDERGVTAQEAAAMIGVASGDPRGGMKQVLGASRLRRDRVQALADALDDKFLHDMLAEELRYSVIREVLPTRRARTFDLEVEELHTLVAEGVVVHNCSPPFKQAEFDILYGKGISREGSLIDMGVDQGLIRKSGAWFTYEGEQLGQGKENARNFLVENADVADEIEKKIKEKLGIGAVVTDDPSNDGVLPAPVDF

[2] = target: T2, Heat shock factor protein 1 (Mus musculus, UniProt P38532); assay: enhancement of HSF1-driven luciferase signal – cell-based, NIH3T3, luminescence, dose retest, confirmation (AID 435004); type: functional;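 further: stress induced by proteasome inhibitor MG132 added 30 min after compound; luciferase reporter driven by HSF1 response element in NIH3T3 cells; actives raise luminescence as potentiators of the MG132 stress response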
T2 sequence (P38532 whole entry): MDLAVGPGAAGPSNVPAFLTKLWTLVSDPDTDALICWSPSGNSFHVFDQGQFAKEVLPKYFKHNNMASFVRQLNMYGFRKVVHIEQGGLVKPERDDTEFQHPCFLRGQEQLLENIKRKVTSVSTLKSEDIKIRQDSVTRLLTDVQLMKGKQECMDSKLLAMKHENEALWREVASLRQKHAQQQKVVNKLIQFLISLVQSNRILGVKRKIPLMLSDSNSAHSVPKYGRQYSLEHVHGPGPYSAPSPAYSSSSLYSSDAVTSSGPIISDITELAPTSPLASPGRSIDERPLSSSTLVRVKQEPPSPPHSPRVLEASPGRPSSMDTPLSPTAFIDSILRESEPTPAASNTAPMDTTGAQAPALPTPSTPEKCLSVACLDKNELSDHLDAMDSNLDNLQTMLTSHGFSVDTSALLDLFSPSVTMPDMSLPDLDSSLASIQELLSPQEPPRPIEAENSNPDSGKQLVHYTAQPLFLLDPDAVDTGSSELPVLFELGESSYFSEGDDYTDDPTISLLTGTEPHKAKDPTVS

[3] = target: T3, Replicative DNA helicase DnaB (Mycobacterium tuberculosis, UniProt P9WMR3); assay: DnaB intein splicing inhibitors, dose response, biochemical, cell-free fluorescence (AID 449749); type: functional
T3 sequence (P9WMR3 whole entry): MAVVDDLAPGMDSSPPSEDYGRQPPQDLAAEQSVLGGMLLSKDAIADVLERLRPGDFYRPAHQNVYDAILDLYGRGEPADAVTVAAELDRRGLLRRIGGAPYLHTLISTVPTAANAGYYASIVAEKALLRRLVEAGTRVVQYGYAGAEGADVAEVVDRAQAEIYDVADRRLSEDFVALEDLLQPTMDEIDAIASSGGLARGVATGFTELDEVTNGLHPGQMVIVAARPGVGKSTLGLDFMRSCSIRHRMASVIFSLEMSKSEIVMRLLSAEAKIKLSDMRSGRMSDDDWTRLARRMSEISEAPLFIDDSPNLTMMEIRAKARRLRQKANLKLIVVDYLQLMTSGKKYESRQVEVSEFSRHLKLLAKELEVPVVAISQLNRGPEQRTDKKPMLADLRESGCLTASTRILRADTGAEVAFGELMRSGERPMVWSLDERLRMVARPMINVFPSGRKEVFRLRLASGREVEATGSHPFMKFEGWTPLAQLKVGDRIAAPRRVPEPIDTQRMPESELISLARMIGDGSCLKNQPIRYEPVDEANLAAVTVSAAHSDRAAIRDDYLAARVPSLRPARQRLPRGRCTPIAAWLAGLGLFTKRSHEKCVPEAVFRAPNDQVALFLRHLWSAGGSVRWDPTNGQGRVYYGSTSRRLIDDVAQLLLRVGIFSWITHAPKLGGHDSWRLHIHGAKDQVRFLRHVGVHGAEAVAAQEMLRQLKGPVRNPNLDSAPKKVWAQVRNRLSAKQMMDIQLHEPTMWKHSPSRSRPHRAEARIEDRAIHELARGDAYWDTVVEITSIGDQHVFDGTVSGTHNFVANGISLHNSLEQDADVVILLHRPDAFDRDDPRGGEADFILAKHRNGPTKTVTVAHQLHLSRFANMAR

[4] = target: Hepatocyte nuclear factor 4-alpha (Homo sapiens, UniProt P41235); type: functional, cell-based;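 further: biochemical luminescence-based dose-response counterscreen measuring inhibition of HNF4 dimerization, run alongside a screen for blockers of ABHD5–perilipin-5 interaction; split luciferase complementation of HNF4 fusion proteins in cell lysate measuring dimerization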
Sequence of Hepatocyte nuclear factor 4-alpha (P41235 whole entry, the tested form may be a part): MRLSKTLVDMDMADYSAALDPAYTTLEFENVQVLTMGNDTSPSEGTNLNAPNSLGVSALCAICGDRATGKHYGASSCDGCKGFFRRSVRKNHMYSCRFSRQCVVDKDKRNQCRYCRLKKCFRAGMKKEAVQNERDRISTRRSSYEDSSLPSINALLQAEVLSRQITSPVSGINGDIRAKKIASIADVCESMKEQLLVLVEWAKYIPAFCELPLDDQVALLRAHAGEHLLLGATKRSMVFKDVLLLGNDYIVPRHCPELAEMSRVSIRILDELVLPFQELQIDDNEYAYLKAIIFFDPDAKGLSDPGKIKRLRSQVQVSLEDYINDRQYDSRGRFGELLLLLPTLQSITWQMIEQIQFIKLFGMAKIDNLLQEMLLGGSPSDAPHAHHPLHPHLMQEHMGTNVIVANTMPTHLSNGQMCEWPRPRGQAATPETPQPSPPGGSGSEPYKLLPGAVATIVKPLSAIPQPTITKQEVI

[5] = cytotoxicity toward MDA-MB-231 breast cancer cells – cell-based, CellTiter-Glo luminescence, cherry-pick, cytotoxicity control for RAD54 inhibitor project, dose response (AID 651692); type: functional
[6] = target: T4, DNA repair and recombination protein RAD54-like (Homo sapiens, UniProt Q92698); assay: RAD54 Holliday junction migration blockers – biochemical, fluorescence, cherry-picked samples, dose series, confirmation (AID 651657); type: functional
T4 sequence (Q92698 whole entry): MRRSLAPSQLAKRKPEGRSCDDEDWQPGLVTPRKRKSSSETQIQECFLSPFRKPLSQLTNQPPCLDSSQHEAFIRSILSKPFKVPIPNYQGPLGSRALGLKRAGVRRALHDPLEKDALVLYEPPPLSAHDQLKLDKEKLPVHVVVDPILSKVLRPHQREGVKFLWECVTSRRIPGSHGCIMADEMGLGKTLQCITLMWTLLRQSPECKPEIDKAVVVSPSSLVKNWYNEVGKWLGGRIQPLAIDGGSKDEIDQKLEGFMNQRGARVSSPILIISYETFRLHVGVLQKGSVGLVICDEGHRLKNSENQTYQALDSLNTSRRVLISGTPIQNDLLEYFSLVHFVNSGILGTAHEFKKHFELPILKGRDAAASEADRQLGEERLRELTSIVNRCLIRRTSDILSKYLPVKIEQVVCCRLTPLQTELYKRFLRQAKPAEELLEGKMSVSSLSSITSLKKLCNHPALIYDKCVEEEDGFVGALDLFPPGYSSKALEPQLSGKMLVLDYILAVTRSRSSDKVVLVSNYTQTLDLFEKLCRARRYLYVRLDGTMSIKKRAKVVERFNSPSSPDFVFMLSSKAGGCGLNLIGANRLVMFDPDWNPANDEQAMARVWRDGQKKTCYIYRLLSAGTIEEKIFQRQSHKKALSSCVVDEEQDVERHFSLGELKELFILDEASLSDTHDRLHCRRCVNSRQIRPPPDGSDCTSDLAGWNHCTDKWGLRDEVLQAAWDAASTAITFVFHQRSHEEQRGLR

[7] = blockers of CRF-binding protein–CRF-R2 complex – cell-based, uHTS hits, 384-well, dose response (AID 651639); type: functional, Homo sapiens; settings: read-out: IC50_Mean
[8] = target: T5, Corticotropin-releasing factor receptor 2/Corticotropin-releasing factor-binding protein (Homo sapiens, UniProt P24387+Q13324); assay: activators of CRF receptor 2 with binding protein – uHTS hits, confirmation (AID 602473); type: functional; settings: read-out: EC50_Mean
T5 sequence (Q13324 whole entry): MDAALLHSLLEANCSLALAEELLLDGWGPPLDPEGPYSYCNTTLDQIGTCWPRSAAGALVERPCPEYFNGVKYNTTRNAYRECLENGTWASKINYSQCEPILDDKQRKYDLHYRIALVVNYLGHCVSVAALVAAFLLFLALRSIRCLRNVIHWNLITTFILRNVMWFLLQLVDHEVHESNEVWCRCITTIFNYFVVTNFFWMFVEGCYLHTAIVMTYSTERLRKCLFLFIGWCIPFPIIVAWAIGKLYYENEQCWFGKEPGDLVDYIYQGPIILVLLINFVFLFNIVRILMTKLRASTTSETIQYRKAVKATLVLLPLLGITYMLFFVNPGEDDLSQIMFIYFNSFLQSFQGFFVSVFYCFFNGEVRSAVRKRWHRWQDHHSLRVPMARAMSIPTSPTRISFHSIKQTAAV
T5 sequence (P24387 whole entry): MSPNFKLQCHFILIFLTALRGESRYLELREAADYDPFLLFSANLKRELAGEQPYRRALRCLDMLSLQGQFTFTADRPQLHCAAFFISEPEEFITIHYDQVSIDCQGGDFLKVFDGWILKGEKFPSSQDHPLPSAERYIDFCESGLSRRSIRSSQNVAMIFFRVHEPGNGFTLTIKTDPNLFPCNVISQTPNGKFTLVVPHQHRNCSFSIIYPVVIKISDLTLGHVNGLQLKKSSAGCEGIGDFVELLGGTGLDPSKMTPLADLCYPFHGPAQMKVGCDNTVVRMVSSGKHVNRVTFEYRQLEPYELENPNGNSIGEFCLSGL

[9] = target: T5, Corticotropin-releasing factor receptor 2/Corticotropin-releasing factor-binding protein; assay: Dose Response confirmation of uHTS hits for small molecule antagonists of the CRF-binding protein and CRF-R2 receptor complex.; type: functional; settings: read-out: IC50_Mean
[10] = target: Photoreceptor-specific nuclear receptor (Homo sapiens, UniProt Q9Y5X4); type: functional, cell-based;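 further: CHO-S cells with Gal4-NCOR and VP16-NR2E3 two-hybrid luciferase reporter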
Sequence of Photoreceptor-specific nuclear receptor (Q9Y5X4 whole entry, the tested form may be a part): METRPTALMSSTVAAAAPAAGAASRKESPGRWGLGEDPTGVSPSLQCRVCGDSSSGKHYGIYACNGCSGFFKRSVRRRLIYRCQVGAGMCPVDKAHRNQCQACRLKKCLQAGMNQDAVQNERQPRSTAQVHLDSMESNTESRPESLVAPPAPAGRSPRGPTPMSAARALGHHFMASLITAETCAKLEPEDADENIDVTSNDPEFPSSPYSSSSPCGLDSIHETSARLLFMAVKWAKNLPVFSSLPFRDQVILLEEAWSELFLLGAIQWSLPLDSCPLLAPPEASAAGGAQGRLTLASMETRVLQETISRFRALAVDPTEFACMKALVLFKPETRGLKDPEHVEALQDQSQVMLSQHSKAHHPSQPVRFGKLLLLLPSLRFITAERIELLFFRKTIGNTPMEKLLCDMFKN

[11] = test system: H9c2; assay: cells; type: functional, cell-based; settings: Rattus norvegicus, H9c2, Myocardium;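 further: confirmatory concentration-response retest of ultra-high-throughput screening hits for modulation of myocardial damage; cell death induced by hydrogen peroxide oxidative stress; compound pretreatment for 60 min then peroxide exposure for 2 h; potency is for protecting the cells against peroxide damage rather than for killing them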
[12] = target: T6, ATP-dependent translocase ABCB1 (Homo sapiens, UniProt P08183); assay: inhibition of BCRP-mediated JC-1 efflux – Ig-MXP3 cells, flow cytometry, set 2, dose response (AID 504566); type: functional; settings: read-out: EC50_MICROM_;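 further: flow cytometry median green fluorescence of retained JC-1 dye; potency of efflux pump inhibition measured as rising substrate retention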
T6 sequence (P08183 whole entry): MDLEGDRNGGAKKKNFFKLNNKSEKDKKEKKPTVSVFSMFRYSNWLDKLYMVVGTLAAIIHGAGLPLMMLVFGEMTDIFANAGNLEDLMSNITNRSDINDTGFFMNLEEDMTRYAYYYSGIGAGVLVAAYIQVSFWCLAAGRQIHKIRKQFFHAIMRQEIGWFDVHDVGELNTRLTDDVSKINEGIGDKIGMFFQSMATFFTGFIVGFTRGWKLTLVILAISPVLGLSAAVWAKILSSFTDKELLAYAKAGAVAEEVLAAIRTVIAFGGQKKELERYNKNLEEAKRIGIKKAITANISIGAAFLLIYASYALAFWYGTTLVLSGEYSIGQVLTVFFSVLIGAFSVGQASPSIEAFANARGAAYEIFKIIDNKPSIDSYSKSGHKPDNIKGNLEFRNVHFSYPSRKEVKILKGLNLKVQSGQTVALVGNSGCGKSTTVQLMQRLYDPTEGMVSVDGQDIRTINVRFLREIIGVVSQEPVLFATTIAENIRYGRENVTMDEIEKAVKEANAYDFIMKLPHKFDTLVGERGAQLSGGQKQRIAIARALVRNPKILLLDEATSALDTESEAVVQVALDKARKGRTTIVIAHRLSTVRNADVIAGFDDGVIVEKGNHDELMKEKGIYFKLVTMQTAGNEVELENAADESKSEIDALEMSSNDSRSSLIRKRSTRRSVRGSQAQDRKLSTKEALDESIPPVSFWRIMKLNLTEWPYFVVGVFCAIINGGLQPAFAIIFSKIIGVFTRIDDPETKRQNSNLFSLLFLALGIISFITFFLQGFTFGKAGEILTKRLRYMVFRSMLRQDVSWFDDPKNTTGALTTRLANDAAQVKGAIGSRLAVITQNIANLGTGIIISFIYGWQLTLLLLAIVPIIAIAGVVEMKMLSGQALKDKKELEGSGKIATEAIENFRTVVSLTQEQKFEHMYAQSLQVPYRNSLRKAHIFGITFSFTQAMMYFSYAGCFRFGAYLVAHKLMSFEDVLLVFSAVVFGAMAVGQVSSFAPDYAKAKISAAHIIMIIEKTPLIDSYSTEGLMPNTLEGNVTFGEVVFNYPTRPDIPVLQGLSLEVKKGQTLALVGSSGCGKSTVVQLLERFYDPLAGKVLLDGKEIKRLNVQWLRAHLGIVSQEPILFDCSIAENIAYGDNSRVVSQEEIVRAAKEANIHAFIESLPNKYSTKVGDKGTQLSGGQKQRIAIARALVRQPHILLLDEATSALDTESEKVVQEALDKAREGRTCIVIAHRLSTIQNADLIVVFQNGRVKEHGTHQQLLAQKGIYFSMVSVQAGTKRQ

[13] = target: T6, ATP-dependent translocase ABCB1; assay: P-gp JC-1 efflux blockade concentration-response – Jurkat-DNR cells, flow cytometry, set 2, dose response (AID 504569); type: functional; settings: read-out: EC50_MICROM_;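 further: potency of pump inhibitors that raise cellular JC-1 green fluorescence up to the nicardipine level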
[14] = target: T7, Low molecular weight phosphotyrosine protein phosphatase (Homo sapiens, UniProt P24666); type: functional; settings: read-out: IC50_Mean
T7 sequence (P24666 whole entry): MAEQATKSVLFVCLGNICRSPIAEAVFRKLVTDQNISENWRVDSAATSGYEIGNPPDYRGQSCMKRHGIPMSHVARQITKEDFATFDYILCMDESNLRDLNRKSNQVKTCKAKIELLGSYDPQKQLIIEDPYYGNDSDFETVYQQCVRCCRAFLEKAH

[15] = target: T7, Low molecular weight phosphotyrosine protein phosphatase; type: functional; settings: read-out: IC50_Mean; remark: listed apart in the source
[16] = target: T8, Carboxy-terminal domain RNA polymerase II polypeptide A small phosphatase 1 (Homo sapiens, UniProt Q9GZU7); assay: CTDSP1 inhibitors, concentration-response, biochemical, absorbance readout, ultra-high-throughput screen actives (AID 540297); type: functional
T8 sequence (Q9GZU7 whole entry): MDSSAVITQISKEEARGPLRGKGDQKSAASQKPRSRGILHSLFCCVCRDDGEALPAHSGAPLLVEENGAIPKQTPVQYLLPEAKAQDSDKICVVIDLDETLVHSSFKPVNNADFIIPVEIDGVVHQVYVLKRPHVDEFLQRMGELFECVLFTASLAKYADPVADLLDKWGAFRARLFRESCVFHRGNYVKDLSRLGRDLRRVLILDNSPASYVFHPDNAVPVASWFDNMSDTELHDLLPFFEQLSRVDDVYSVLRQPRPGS

[17] = target: Albumin (Bos taurus, UniProt P02769); assay: Counterscreen for inhibitors of T-cell receptor (TCR)-CD3 interaction: Fluorescence-based biochemical high throughput dose response assay to identify inhibitors of T-cell receptor (TCR)-CD3 interaction using a TAMRA-labeled BSA probe.; type: functional
Sequence of Albumin (P02769 whole entry): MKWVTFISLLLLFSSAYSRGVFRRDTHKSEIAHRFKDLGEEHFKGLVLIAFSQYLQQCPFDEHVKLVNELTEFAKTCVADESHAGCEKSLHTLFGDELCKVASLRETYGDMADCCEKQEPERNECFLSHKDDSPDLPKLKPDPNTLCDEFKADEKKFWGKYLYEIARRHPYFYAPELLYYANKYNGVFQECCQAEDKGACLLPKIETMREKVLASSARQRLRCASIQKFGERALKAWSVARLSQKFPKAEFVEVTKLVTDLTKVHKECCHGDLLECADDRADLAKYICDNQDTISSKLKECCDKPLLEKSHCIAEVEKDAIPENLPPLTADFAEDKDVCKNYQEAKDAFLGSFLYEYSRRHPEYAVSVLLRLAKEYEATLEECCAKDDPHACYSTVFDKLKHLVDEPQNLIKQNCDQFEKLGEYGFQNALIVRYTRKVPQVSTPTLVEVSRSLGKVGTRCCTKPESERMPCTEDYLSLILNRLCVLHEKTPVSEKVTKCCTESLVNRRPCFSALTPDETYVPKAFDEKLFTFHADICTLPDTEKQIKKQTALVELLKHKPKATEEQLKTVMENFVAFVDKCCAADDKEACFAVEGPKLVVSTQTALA

[18] = viability of uninfected HEp-2 cells – cell-based, HTS, cytotoxicity control for RSV inhibitor project, dose response (AID 2410); type: functional; settings: human respiratory syncytial virus
[19] = target: T9, Probable nicotinate-nucleotide adenylyltransferase (Staphylococcus aureus (strain N315), UniProt P65502); type: functional, Staphylococcus aureus subsp. aureus N315; settings: read-out: IC50_Mean;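 on IC50 Mean: confirmatory dose-response retesting of NadD inhibitor hits first found in an ultra-high-throughput screen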
T9 sequence (P65502 whole entry): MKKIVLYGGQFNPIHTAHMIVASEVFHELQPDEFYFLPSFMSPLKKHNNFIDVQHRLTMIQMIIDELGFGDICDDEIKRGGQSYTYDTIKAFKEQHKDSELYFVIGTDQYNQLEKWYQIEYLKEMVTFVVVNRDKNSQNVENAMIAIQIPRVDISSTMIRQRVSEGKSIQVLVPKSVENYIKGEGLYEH

[20] = Trypanosoma cruzi growth suppression in host cells – NIH3T3 host cells, beta-gal luminescence, confirmation (AID 2044); type: functional, cell-based;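 further: intracellular parasites grown in NIH/3T3 mouse fibroblasts as host cells; luminescent beta-galactosidase reporter signal from transgenic T. cruzi replicating inside host cells; inhibitors lower the luminescence signal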
[21] = target: T9, Probable nicotinate-nucleotide adenylyltransferase; type: functional, Staphylococcus aureus subsp. aureus N315
[22] = NIH3T3 cell viability loss – ATP luminescence, mouse fibroblasts, counter-screen, dose response (AID 2010); type: functional, cell-based;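 further: cells exposed to compound for about 90 hours before reading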

N#Cc1ncc(Cc2ccccc2)nc1C#N
EC50 [1]: 1.71 µM (active)
EC50 [2]: 18.1 µM (active)
AC50 [3]: 2.42 µM (active)
IC50 [4]: 18.1 µM (inactive)

CCCCN(CC)CCNC(=O)c1cc2c(O)nc3ccc(C)cc3c2s1
AC50 [5]: 23.1 µM (active)
AC50 [6]: 100 µM (inactive)

CN(CCOc1ccc(Cl)cc1)C(=O)C1CCN(C(=O)c2ccc(Cl)cc2)CC1
IC50 [7]: > 20 µM (inactive)
EC50 [8]: > 53 µM (inactive)
IC50 [9]: < 0.368 µM (active)

O=C(O)CC1(CC(=O)Nc2cc(C(F)(F)F)cc(C(F)(F)F)c2)CCCCC1
IC50 [10]: 2.23 µM (active)

COc1ccc(-c2cc3nc(-c4ccccc4)cc(N4CCN(C(C)=O)CC4)n3n2)cc1
IC50 [11]: > 79 µM (inactive)
EC50 [12]: 1.47 µM (active)
EC50 [13]: 1.94 µM (active)

O=C(NNC(=O)c1ccc2ccccc2c1)c1ccc(Cl)cc1
IC50 [14]: 54.1 µM (inactive)
IC50 [15]: 20 µM (inactive)
IC50 [16]: > 80 µM (inactive)

COCCn1/c(=N/C(=O)c2cc(-c3cccs3)nc3ccccc23)sc2cc(S(N)(=O)=O)ccc21
IC50 [17]: > 94.1 µM (inactive)
CC50 [18]: > 50 µM (active)
IC50 [19]: 23.8 µM (active)
EC50 [20]: 2.47 µM (active)
IC50 [21]: 12.4 µM (active)
EC50 [22]: > 60 µM (not active)
